Laboratory results published in patent US20070275006A1, “IRIDOID GLYCOSIDE COMPOSITION” (priority 2006, published 2007).

Tested on: Th1 (IL-2, IFN-γ, TNF alpha) and Th2 (IL-4, IL-5, IL-10) cytokines
Test: Th1 & Th2 cytokines in lymph node cells of HBsAg immunized mice by flowcytometry
Assay type: in vivo
Details: adjuvant containing HBsAg; immunized mice day 28, flowcytometry
From the text: Cytokines (Th1 & Th2 responses) in serum by ELISA (Quantikine, R & D systems) and lymph node cells by flowcytometry collected from immunized mice on day 28th (Quantikine, optia Kit).
High levels of Th1 cytokines were secreted in response to MDP and FCA containing HBsAg.

With `CC(=O)N[C@H]1C(O)O[C@H](CO)[C@@H](O)[C@@H]1O[C@H](C)C(=O)N[C@@H](C)C(=O)N[C@H](CCC(=O)O)C(N)=O` (mixture of isomers) [MDP, Muramyl dipeptide] the “Th1 and Th2 cytokines in lymph nodes cell culture fluid” value was “very low for the Th2 cytokines and increased Th1 type of immune response”.
